According to PubChem BioAssay (NCI):
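Exposure lasted 48 hours, with cells grown in 96-well plates and compounds tested at five concentrations. The concentration for 50% growth inhibition is given as GI50. The concentration for full growth arrest is given as TGI.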

Columns and labels:
Assay in all cases: NCI-60 cell line screen, 48 h
[1] = system: SN12C renal
[2] = system: SK-MEL-28 melanoma
[3] = system: SK-MEL-2 melanoma
[4] = system: SK-OV-3 ovarian
[5] = system: PC-3 prostate
[6] = system: SF-539 CNS
[7] = system: UO-31 renal
[8] = system: RPMI-8226 leukemia
[9] = system: HL-60(TB) leukemia
[10] = system: SK-MEL-5 melanoma
[11] = system: COLO 205 colon
[12] = system: U251 CNS
[13] = system: NCI-H23 lung
[14] = system: M14 melanoma
[15] = system: OVCAR-4 ovarian
[16] = system: A498 renal
[17] = system: ACHN renal
[18] = system: 786-0 renal
[19] = system: BT-549 breast
[20] = system: EKVX NSCLC
[21] = system: OVCAR-8 ovarian
[22] = system: SNB-75 CNS
[23] = system: HT29 colon
[24] = system: DU-145 prostate
[25] = system: NCI-H460 lung
[26] = system: UACC-62 melanoma
[27] = system: MALME-3M melanoma
[28] = system: TK-10 renal
[29] = system: SR leukemia
[30] = system: SNB-19 CNS
[31] = system: MDA-MB-435
[32] = system: HS 578T breast
[33] = system: KM12 colon
[34] = system: HCT-116 colon
[35] = system: MOLT-4 leukemia
[36] = system: CCRF-CEM leukemia
[37] = system: LOX IMVI melanoma
[38] = system: HCT-15 colon
[39] = system: HOP-92 NSCLC
[40] = system: OVCAR-5 ovarian
[41] = system: HOP-62 NSCLC
[42] = system: NCI-H522 lung
[43] = system: HCC-2998 colon
[44] = system: MDA-MB-231 breast
[45] = system: T-47D breast
[46] = system: SF-268 CNS
[47] = system: K-562 leukemia
[48] = system: MDA-MB-468 breast
[49] = system: SW-620 colon
[50] = system: IGROV1 ovarian
[51] = system: CAKI-1 renal
[52] = system: MCF7 breast
[53] = system: OVCAR-3 ovarian
[54] = system: SF-295 CNS
[55] = system: NCI-H226 lung
[56] = system: UACC-257 melanoma
[57] = system: A549 NSCLC
[58] = system: RXF 393 renal

Compound: COc1cccc2nc(Nc3ccc(F)c(NC(=O)c4ccc(CN5CCN(C)CC5)c(C(F)(F)F)c4)c3)ccc12
- GI50 [1]: 13.4 µM
- TGI [1]: 27.4 µM
- GI50 [2]: 15.3 µM
- TGI [2]: 30.3 µM
- GI50 [3]: 16.1 µM
- TGI [3]: 29.9 µM
- GI50 [4]: 15.7 µM
- TGI [4]: 29.8 µM
- GI50 [5]: 12 µM
- TGI [5]: 28.7 µM
- GI50 [6]: 12.4 µM
- TGI [6]: 25.5 µM
- GI50 [7]: 12.6 µM
- TGI [7]: 25.5 µM
- GI50 [8]: 9.3 µM
- TGI [8]: 27.1 µM
- GI50 [9]: 6.52 µM
- TGI [9]: 25.4 µM
- GI50 [10]: 15.5 µM
- TGI [10]: 28.9 µM
- GI50 [11]: 17.2 µM
- TGI [11]: 31.9 µM
- GI50 [12]: 13.4 µM
- TGI [12]: 26.1 µM
- GI50 [13]: 15.5 µM
- TGI [13]: 29.6 µM
- GI50 [14]: 13.1 µM
- TGI [14]: 27.5 µM
- GI50 [15]: 13.9 µM
- TGI [15]: 28.9 µM
- GI50 [16]: 17 µM
- TGI [16]: 32.2 µM
- GI50 [17]: 16.5 µM
- TGI [17]: 34.9 µM
- GI50 [18]: 12.5 µM
- TGI [18]: 26.4 µM
- GI50 [19]: 10.5 µM
- TGI [19]: 22.6 µM
- GI50 [20]: 14.7 µM
- TGI [20]: 29.1 µM
- GI50 [21]: 15.8 µM
- TGI [21]: 29.8 µM
- GI50 [22]: 9.08 µM
- TGI [22]: 21.4 µM
- GI50 [23]: 3.61 µM
- TGI [23]: 13.9 µM
- GI50 [24]: 12.9 µM
- TGI [24]: 25.6 µM
- GI50 [25]: 15.9 µM
- TGI [25]: 33.5 µM
- GI50 [26]: 16.2 µM
- TGI [26]: 30.9 µM
- GI50 [27]: 11.7 µM
- TGI [27]: 24.1 µM
- GI50 [28]: 16.4 µM
- TGI [28]: 30.2 µM
- GI50 [29]: 9.84 µM
- TGI [29]: 28 µM
- GI50 [30]: 17.2 µM
- TGI [30]: 32.8 µM
- GI50 [31]: 15.1 µM
- TGI [31]: 28.3 µM
- GI50 [32]: 14.1 µM
- TGI [32]: 39.9 µM
- GI50 [33]: 15.4 µM
- TGI [33]: 29.6 µM
- GI50 [34]: 8.75 µM
- TGI [34]: 22.6 µM
- GI50 [35]: 4.1 µM
- TGI [35]: 18.4 µM
- GI50 [36]: 9.71 µM
- TGI [36]: 25.6 µM
- GI50 [37]: 13.8 µM
- TGI [37]: 27.3 µM
- GI50 [38]: 13.4 µM
- TGI [38]: 28.4 µM
- GI50 [39]: 6.64 µM
- TGI [39]: 21.6 µM
- GI50 [40]: 16.1 µM
- TGI [40]: 30.4 µM
- GI50 [41]: 14.5 µM
- TGI [41]: 28 µM
- GI50 [42]: 16 µM
- TGI [42]: 30.2 µM
- GI50 [43]: 18.8 µM
- TGI [43]: 33.2 µM
- GI50 [44]: 12.1 µM
- TGI [44]: 24.9 µM
- GI50 [45]: 14.8 µM
- TGI [45]: 31.4 µM
- GI50 [46]: 11.1 µM
- TGI [46]: 27.1 µM
- GI50 [47]: 3.59 µM
- TGI [47]: 20.9 µM
- GI50 [48]: 4.79 µM
- TGI [48]: 18.1 µM
- GI50 [49]: 16.9 µM
- TGI [49]: 30.9 µM
- GI50 [50]: 14.5 µM
- TGI [50]: 29 µM
- GI50 [51]: 11.5 µM
- TGI [51]: 24.2 µM
- GI50 [52]: 12.3 µM
- TGI [52]: 27.5 µM
- GI50 [53]: 14.4 µM
- TGI [53]: 28 µM
- GI50 [54]: 17.1 µM
- TGI [54]: 32.2 µM
- GI50 [55]: 11.1 µM
- TGI [55]: 24.7 µM
- GI50 [56]: 16.3 µM
- TGI [56]: 30.1 µM
- GI50 [57]: 12.2 µM
- TGI [57]: 24.6 µM
- GI50 [58]: 3.71 µM
- TGI [58]: 17.2 µM

Compound: O=c1oc2ccc(-c3ccc(F)cc3F)cc2c(=O)n1-c1ccc(F)cc1
- GI50 [1]: 2.12 µM
- TGI [1]: 8.04 µM
- GI50 [2]: 3.23 µM
- TGI [2]: > 100 µM
- GI50 [3]: 1.79 µM
- TGI [3]: 4.6 µM
- GI50 [4]: 2.15 µM
- TGI [4]: 6.37 µM
- GI50 [5]: 2.8 µM
- TGI [5]: 11.7 µM
- GI50 [6]: 2.88 µM
- TGI [6]: 12.1 µM
- GI50 [7]: 2.3 µM
- TGI [7]: 9.44 µM
- GI50 [8]: 1.33 µM
- TGI [8]: 7.13 µM
- GI50 [9]: 2.01 µM
- TGI [9]: 6.13 µM
- GI50 [10]: 0.799 µM
- TGI [10]: 2.3 µM
- GI50 [11]: 16.3 µM
- TGI [11]: 34.8 µM
- GI50 [12]: 2.82 µM
- TGI [12]: 17.3 µM
- GI50 [13]: 2.08 µM
- TGI [13]: 6.78 µM
- GI50 [14]: 3.49 µM
- TGI [14]: > 100 µM
- GI50 [15]: 2.08 µM
- TGI [15]: 54.1 µM
- GI50 [16]: 1.91 µM
- TGI [16]: 6.17 µM
- GI50 [17]: 3.88 µM
- TGI [17]: > 100 µM
- GI50 [18]: 5.51 µM
- TGI [18]: 53.7 µM
- GI50 [19]: 1.92 µM
- TGI [19]: 5.89 µM
- GI50 [20]: 2.8 µM
- TGI [20]: > 100 µM
- GI50 [21]: 3.52 µM
- TGI [21]: > 100 µM
- GI50 [22]: 1.38 µM
- TGI [22]: 5.53 µM
- GI50 [23]: 10.3 µM
- TGI [23]: 75.8 µM
- GI50 [24]: 3.3 µM
- TGI [24]: > 100 µM
- GI50 [25]: 2.3 µM
- TGI [25]: 11.9 µM
- GI50 [26]: 1.37 µM
- TGI [26]: 4.65 µM
- GI50 [27]: 1.62 µM
- TGI [27]: 5.34 µM
- GI50 [28]: 2.78 µM
- TGI [28]: > 100 µM
- GI50 [29]: 2.45 µM
- TGI [29]: > 100 µM
- GI50 [30]: 3.58 µM
- TGI [30]: > 100 µM
- GI50 [31]: 1.73 µM
- TGI [31]: 7.09 µM
- GI50 [32]: 2.27 µM
- TGI [32]: 7.51 µM
- GI50 [33]: 3.07 µM
- TGI [33]: 10.7 µM
- GI50 [34]: 3.12 µM
- TGI [34]: 18.8 µM
- GI50 [35]: 2.08 µM
- TGI [35]: 8.27 µM
- GI50 [36]: 3.18 µM
- TGI [36]: 9.84 µM
- GI50 [37]: 3.21 µM
- TGI [37]: 11.2 µM
- GI50 [38]: 2.91 µM
- TGI [38]: > 100 µM
- GI50 [39]: 0.95 µM
- TGI [39]: 4.48 µM
- GI50 [40]: 3.2 µM
- TGI [40]: > 100 µM
- GI50 [41]: 2.39 µM
- TGI [41]: 6.93 µM
- GI50 [42]: 1.23 µM
- TGI [42]: 6.15 µM
- GI50 [43]: 3.31 µM
- TGI [43]: 13.9 µM
- GI50 [44]: 1.76 µM
- TGI [44]: 4.41 µM
- GI50 [45]: 0.502 µM
- TGI [45]: 4.32 µM
- GI50 [47]: 1.58 µM
- TGI [47]: > 100 µM
- GI50 [48]: 1.87 µM
- TGI [48]: 5.67 µM
- GI50 [49]: 3.23 µM
- TGI [49]: > 100 µM
- GI50 [50]: 3.02 µM
- TGI [50]: > 100 µM
- GI50 [51]: 1.48 µM
- TGI [51]: 5.1 µM
- GI50 [52]: 2.51 µM
- TGI [52]: > 100 µM
- GI50 [53]: 2.49 µM
- TGI [53]: 14 µM
- GI50 [54]: 3.46 µM
- TGI [54]: 12.8 µM
- GI50 [55]: 1.45 µM
- TGI [55]: 6.5 µM
- GI50 [56]: 1.64 µM
- TGI [56]: 6.78 µM
- GI50 [57]: 3.25 µM
- TGI [57]: > 100 µM
- GI50 [58]: 1.55 µM
- TGI [58]: 5.63 µM
